How the values were obtained:
[1] = molecular target: T1, HGFA (Homo sapiens, UniProt Q04756); assay: HGFA competition assay of inhibitor and substrate; type: biochemical; settings: 0, 0.25, 0.5, 1.0 μM inhibitor; Pefachrome
T1 construct: His6 tag (N); seven amino acid spacer and seven amino acid TEV cleavage site (N); Honey Bee melittin signal peptide (N); made in house; host or cells: High 5 insect cells (baculovirus; virus raised in Sf9)
T1 sequence (Q04756 373-655): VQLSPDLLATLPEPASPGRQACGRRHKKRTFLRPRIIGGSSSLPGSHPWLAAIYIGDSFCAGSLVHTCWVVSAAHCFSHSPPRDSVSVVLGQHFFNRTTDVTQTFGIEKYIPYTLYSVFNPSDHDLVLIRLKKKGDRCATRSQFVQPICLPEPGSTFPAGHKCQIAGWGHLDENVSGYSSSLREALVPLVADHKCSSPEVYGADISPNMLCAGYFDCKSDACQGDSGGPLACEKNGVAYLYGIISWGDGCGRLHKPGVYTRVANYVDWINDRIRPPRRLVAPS
Description: From the plots of the mean reaction velocity versus substrate concentration and the Michaelis-Menten enzyme kinetics equation within GraphPad Prism version 6.04 for Windows, the reaction Vmax and subsequent Km for each concentration of inhibitor was determined as shown in the FIG. 1.

[2] = test system: c-MET phosphorylation in MDA-MB-231 cells; assay: c-MET phosphorylation (Y1234/1235) in MDA-MB-231 cells treated with HGFA processed pro-HGF; type: cell-based, human; settings: pro-HGF/HGFA reactions, read-out: EC50, inhibition of c-MET phosphorylation
Text: To show the inhibition provided by the tetrapeptide compounds would have effects on cell signaling through c-MET kinase, a phosphorylation assay using the invasive breast cancer cell line, MDA-MB-231 was developed. This cell line has high expression of c-MET and pro-HGFA but not pro-HGF.
MDA-MB-231 cells were maintained in RPMI medium (Sigma-Aldrich R8758, St. Louis, Mo.) containing 10% fetal bovine serum (Sigma F2442) and 1× Penicillin/Streptomycin (Pen/Strep) antibiotics (Thermo Fisher SV30010). […] After 18 hours, cells were switched to fresh starve media and then treated with HGFA Proteolysis reactions containing 1 nM HGFA, 50 ng pro-HGF and various amounts of inhibitors. […] Lysate aliquots were mixed with reducing SDS gel loading buffer and run on 10% PAGE.
Immunoblots were performed as described previously, except primary antibodies, anti-phospho cMet (Cell Signaling, CS3077) and anti-total cMet (Cell Signaling, CS3127) were used and diluted in 5% BSA/TBST. Secondary antibodies, HRP-anti rabbit antibody (CS7074) and HRP-anti mouse (CS7076) were used, respectively. All antibodies were used at a 1:1000 dilution. Images were obtained and quantitated using BioRad ChemiDoc MP Imaging System. cMet phosphorylation signals were normalized using the total cMet signals and % inhibition calculated using the ratio of inhibited versus uninhibited HGFA Proteolytic reactions. […]

mode of inhibition versus substrate [1]	EC50 [2] [nM]	SMILES
competitive		CC(=O)N[C@@H](CCCCN)C(=O)N[C@@H](CCC(N)=O)C(=O)N[C@@H](CC(C)C)C(=O)N[C@@H](CCCNC(=N)N)C(=O)c1nccs1 [Compound 5, Ac-KQLR(SEQ ID NO: 1)-kt]
	180	CC(=O)N[C@@H](CCCCN)C(=O)N[C@@H](CCCNC(=N)N)C(=O)N[C@@H](CC(C)C)C(=O)N[C@@H](CCCNC(=N)N)C(=O)c1nccs1 [Compound 5g, Ac-KRLR(SEQ ID NO: 8)-kt]

Source: patent publication US11130780B2, “Inhibitors of growth factor activation enzymes” (Washington University, priority 2015, dated 2021)
